# PubChem BioAssay (NCI)
#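 The concentration for 50% growth inhibition is given as GI50. At the TGI there is no net growth.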
# Columns and labels:
# Test in all cases: inhibition of tumour cell growth, NCI panel, 384-well format
# 786-0 renal = system: 786-0 renal
# A498 renal = system: A498 renal
# A549 NSCLC = system: A549 NSCLC
# ACHN renal = system: ACHN renal
# BT-549 breast = system: BT-549 breast
# CAKI-1 renal = system: CAKI-1 renal
# CCRF-CEM leukemia = system: CCRF-CEM leukemia
# COLO 205 colon = system: COLO 205 colon
# DU-145 prostate = system: DU-145 prostate
# HCC-2998 colon = system: HCC-2998 colon
# HCT-116 colon = system: HCT-116 colon
# HCT-15 colon = system: HCT-15 colon
# HL-60(TB) leukemia = system: HL-60(TB) leukemia
# HOP-62 NSCLC = system: HOP-62 NSCLC
# HOP-92 NSCLC = system: HOP-92 NSCLC
# HT29 colon = system: HT29 colon
# IGROV1 ovarian = system: IGROV1 ovarian
# K-562 leukemia = system: K-562 leukemia
# KM12 colon = system: KM12 colon
# LOX IMVI melanoma = system: LOX IMVI melanoma
# M14 melanoma = system: M14 melanoma
# MALME-3M melanoma = system: MALME-3M melanoma
# MCF7 breast = system: MCF7 breast
# MDA-MB-231 breast = system: MDA-MB-231 breast
# MDA-MB-435 melanoma = system: MDA-MB-435 melanoma
# MDA-MB-468 breast = system: MDA-MB-468 breast
# MOLT-4 leukemia = system: MOLT-4 leukemia
# NCI-H226 lung = system: NCI-H226 lung
# NCI-H23 lung = system: NCI-H23 lung
# NCI-H322M lung = system: NCI-H322M lung
# NCI-H460 NSCLC = system: NCI-H460 NSCLC
# NCI-H522 lung = system: NCI-H522 lung
# NCI/ADR-RES ovarian = system: NCI/ADR-RES ovarian
# OVCAR-3 ovarian = system: OVCAR-3 ovarian
# OVCAR-4 ovarian = system: OVCAR-4 ovarian
# OVCAR-5 ovarian = system: OVCAR-5 ovarian
# OVCAR-8 ovarian = system: OVCAR-8 ovarian
# PC-3 prostate = system: PC-3 prostate
# RPMI-8226 leukemia = system: RPMI-8226 leukemia
# RXF 393 renal = system: RXF 393 renal
# SF-268 CNS = system: SF-268 CNS
# SF-295 CNS = system: SF-295 CNS
# SF-539 CNS = system: SF-539 CNS
# SK-MEL-2 melanoma = system: SK-MEL-2 melanoma
# SK-MEL-28 melanoma = system: SK-MEL-28 melanoma
# SK-MEL-5 melanoma = system: SK-MEL-5 melanoma
# SK-OV-3 ovarian = system: SK-OV-3 ovarian
# SN12C renal = system: SN12C renal
# SNB-19 CNS = system: SNB-19 CNS
# SR leukemia = system: SR leukemia
# SW-620 colon = system: SW-620 colon
# T-47D breast = system: T-47D breast
# TK-10 renal = system: TK-10 renal
# U251 glioblastoma = system: U251 glioblastoma
# UACC-257 melanoma = system: UACC-257 melanoma
# UACC-62 melanoma = system: UACC-62 melanoma
# UO-31 renal = system: UO-31 renal
compound,measurement,setting,value
Cc1cc(NC(=O)c2ccc(NS(=O)(=O)CCO)cc2N2CCC3(CC2)CC3)nc(N2CCC(F)(F)CC2)n1,GI50,786-0 renal,1630 nM
same,TGI,786-0 renal,3070 nM
same,GI50,A498 renal,484 nM
same,TGI,A498 renal,2350 nM
same,GI50,A549 NSCLC,2530 nM
same,TGI,A549 NSCLC,6670 nM
same,GI50,ACHN renal,2020 nM
same,TGI,ACHN renal,4940 nM
same,GI50,BT-549 breast,24.6 nM
same,TGI,BT-549 breast,1260 nM
same,GI50,CAKI-1 renal,1890 nM
same,TGI,CAKI-1 renal,6280 nM
same,GI50,CCRF-CEM leukemia,1720 nM
same,TGI,CCRF-CEM leukemia,3120 nM
same,GI50,COLO 205 colon,1660 nM
same,TGI,COLO 205 colon,3280 nM
same,GI50,DU-145 prostate,56.3 nM
same,TGI,DU-145 prostate,2700 nM
same,GI50,HCC-2998 colon,72.5 nM
same,TGI,HCC-2998 colon,402 nM
same,GI50,HCT-116 colon,1440 nM
same,TGI,HCT-116 colon,2850 nM
same,GI50,HCT-15 colon,1660 nM
same,TGI,HCT-15 colon,3060 nM
same,GI50,HL-60(TB) leukemia,2200 nM
same,TGI,HL-60(TB) leukemia,3670 nM
same,GI50,HOP-62 NSCLC,1940 nM
same,TGI,HOP-62 NSCLC,3650 nM
same,GI50,HOP-92 NSCLC,1890 nM
same,TGI,HOP-92 NSCLC,3410 nM
same,GI50,HT29 colon,31.7 nM
same,TGI,HT29 colon,152 nM
same,GI50,IGROV1 ovarian,1940 nM
same,TGI,IGROV1 ovarian,4960 nM
same,GI50,K-562 leukemia,1570 nM
same,TGI,K-562 leukemia,3040 nM
same,GI50,KM12 colon,694 nM
same,TGI,KM12 colon,2180 nM
same,GI50,LOX IMVI melanoma,2120 nM
same,TGI,LOX IMVI melanoma,3580 nM
same,GI50,M14 melanoma,328 nM
same,TGI,M14 melanoma,1250 nM
same,GI50,MALME-3M melanoma,614 nM
same,TGI,MALME-3M melanoma,3420 nM
same,GI50,MCF7 breast,2090 nM
same,TGI,MCF7 breast,4910 nM
same,GI50,MDA-MB-231 breast,74.3 nM
same,TGI,MDA-MB-231 breast,2480 nM
same,GI50,MDA-MB-435 melanoma,686 nM
same,TGI,MDA-MB-435 melanoma,5300 nM
same,GI50,MDA-MB-468 breast,35.2 nM
same,TGI,MDA-MB-468 breast,648 nM
same,GI50,MOLT-4 leukemia,1760 nM
same,TGI,MOLT-4 leukemia,3180 nM
same,GI50,NCI-H226 lung,1570 nM
same,TGI,NCI-H226 lung,3130 nM
same,GI50,NCI-H23 lung,1310 nM
same,TGI,NCI-H23 lung,2670 nM
same,GI50,NCI-H322M lung,564 nM
same,TGI,NCI-H322M lung,3370 nM
same,GI50,NCI-H460 NSCLC,298 nM
same,TGI,NCI-H460 NSCLC,1050 nM
same,GI50,NCI-H522 lung,1860 nM
same,TGI,NCI-H522 lung,4330 nM
same,GI50,NCI/ADR-RES ovarian,101 nM
same,TGI,NCI/ADR-RES ovarian,703 nM
same,TGI,OVCAR-3 ovarian,23.5 nM
same,GI50,OVCAR-4 ovarian,258 nM
same,TGI,OVCAR-4 ovarian,1300 nM
same,GI50,OVCAR-5 ovarian,2010 nM
same,TGI,OVCAR-5 ovarian,4700 nM
same,GI50,OVCAR-8 ovarian,71.6 nM
same,TGI,OVCAR-8 ovarian,2610 nM
same,GI50,PC-3 prostate,1850 nM
same,TGI,PC-3 prostate,3390 nM
same,GI50,RPMI-8226 leukemia,1590 nM
same,TGI,RPMI-8226 leukemia,2950 nM
same,GI50,RXF 393 renal,13.5 nM
same,TGI,RXF 393 renal,66.6 nM
same,GI50,SF-268 CNS,1420 nM
same,TGI,SF-268 CNS,3310 nM
same,GI50,SF-295 CNS,373 nM
same,TGI,SF-295 CNS,1140 nM
same,GI50,SF-539 CNS,53.7 nM
same,TGI,SF-539 CNS,391 nM
same,GI50,SK-MEL-2 melanoma,89.9 nM
same,TGI,SK-MEL-2 melanoma,2910 nM
same,GI50,SK-MEL-28 melanoma,792 nM
same,TGI,SK-MEL-28 melanoma,5840 nM
same,GI50,SK-MEL-5 melanoma,1680 nM
same,TGI,SK-MEL-5 melanoma,3070 nM
same,GI50,SK-OV-3 ovarian,89.5 nM
same,TGI,SK-OV-3 ovarian,5810 nM
same,GI50,SN12C renal,1850 nM
same,TGI,SN12C renal,3530 nM
same,GI50,SNB-19 CNS,1440 nM
same,TGI,SNB-19 CNS,3110 nM
same,GI50,SR leukemia,22.1 nM
same,TGI,SR leukemia,135 nM
same,GI50,SW-620 colon,1650 nM
same,TGI,SW-620 colon,3140 nM
same,GI50,T-47D breast,694 nM
same,TGI,T-47D breast,14100 nM
same,GI50,TK-10 renal,2160 nM
same,TGI,TK-10 renal,4760 nM
same,GI50,U251 glioblastoma,60.8 nM
same,TGI,U251 glioblastoma,479 nM
same,GI50,UACC-257 melanoma,390 nM
same,TGI,UACC-257 melanoma,1960 nM
same,GI50,UACC-62 melanoma,1590 nM
same,TGI,UACC-62 melanoma,3490 nM
same,GI50,UO-31 renal,1250 nM
same,TGI,UO-31 renal,2890 nM
